Reference: ChEMBL document CHEMBL2021833, “Calcitonin gene-related peptide (CGRP) receptor antagonists: pyridine as a replacement for a core amide group” (Bioorg Med Chem Lett, 2012)

Columns and labels:
[1] = target: T1, Calcitonin gene-related peptide type 1 receptor (Homo sapiens, UniProt O60894+Q16602); test: Displacement of [I125]CGRP from CGRP receptor in human SK-N-MC cell membrane after 2 hrs by gamma or scintillation counting; assay type: cell membranes
[2] = target: T1, Calcitonin gene-related peptide type 1 receptor; test: Antagonist activity at CGRP receptor in human SK-N-MC cells assessed as inhibition of CGRP-stimulated cAMP production; assay type: functional, cell-based
Liver microsomes [3] = test: Metabolic stability in rat liver microsomes; assay type: ADME, Microsome
Liver microsomes [4] = test: Metabolic stability in human liver microsomes; assay type: ADME, Microsome
[5] = Permeability across human Caco2 cells; assay type: ADME, cell-based; details: Caco-2, read-out: permeability
[6] = target: T1, Calcitonin gene-related peptide type 1 receptor; test: Antagonist activity at CGRP receptor in human SK-N-MC cells assessed as inhibition of CGRP-stimulated cAMP production in presence of plasma; assay type: functional, cell-based
Plasma = test: Fraction unbound in po dosed rat plasma; assay type: ADME, organism-based; details: in vivo
[7] = Oral bioavailability in rat; assay type: ADME, organism-based; details: in vivo

T1 sequence (Q16602 whole entry, one chain of several): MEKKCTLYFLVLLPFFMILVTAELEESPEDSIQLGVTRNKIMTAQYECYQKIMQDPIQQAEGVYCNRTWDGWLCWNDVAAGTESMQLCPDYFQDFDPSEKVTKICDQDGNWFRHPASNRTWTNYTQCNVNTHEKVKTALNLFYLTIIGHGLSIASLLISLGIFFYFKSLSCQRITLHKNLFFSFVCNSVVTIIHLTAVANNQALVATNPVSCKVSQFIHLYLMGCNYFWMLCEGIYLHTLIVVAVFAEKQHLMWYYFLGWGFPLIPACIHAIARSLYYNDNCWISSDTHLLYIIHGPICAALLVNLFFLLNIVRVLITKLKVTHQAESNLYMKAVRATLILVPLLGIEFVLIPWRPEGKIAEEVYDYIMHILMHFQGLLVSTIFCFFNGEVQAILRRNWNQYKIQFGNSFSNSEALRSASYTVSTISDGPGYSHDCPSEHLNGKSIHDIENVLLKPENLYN

IC50 [1] | IC50 [2] | Stability (Liver microsomes [3]) | Stability (Liver microsomes [4]) | SMILES | further results
30 nM | 28 nM | Unstable | Unstable | Cc1cc(CC(OC(=O)N2CCC(N3Cc4ccccc4NC3=O)CC2)c2cc(C(=O)O)ccn2)cc2cn[nH]c12 (stereo not given) | 
4.4 nM |  | Unstable | Unstable | COC(=O)c1ccnc(C(Cc2cc(C)c3[nH]ncc3c2)OC(=O)N2CCC(N3Cc4ccccc4NC3=O)CC2)c1 (stereo not given) | 
0.27 nM |  | Unstable | Unstable | Cc1cc(CC(OC(=O)N2CCC(N3Cc4ccccc4NC3=O)CC2)c2cc(-c3ccncc3)ccn2)cc2cn[nH]c12 (stereo not given) | 
0.1 nM | 0.02 nM | Unstable | Unstable | Cc1cc(CC(OC(=O)N2CCC(N3Cc4ccccc4NC3=O)CC2)c2cc(CN3CCCCC3)ccn2)cc2cn[nH]c12 (stereo not given) | 
1.2 nM |  | Unstable | Unstable | Cc1cc(CC(OC(=O)N2CCC(c3cc4ccccc4[nH]c3=O)CC2)c2cc(CN3CCOCC3)ccn2)cc2cn[nH]c12 (stereo not given) | Papp [5]: 9.9 ×10⁻⁶ cm/s
0.33 nM |  |  |  | Cc1cc(CC(OC(=O)N2CCC(N3Cc4ccccc4NC3=O)CC2)c2ccccn2)cc2c(Br)n[nH]c12 (stereo not given) | 
1.9 nM |  |  |  | Cc1cc(CC(OC(=O)N2CCC(N3Cc4ccccc4NC3=O)CC2)c2ccccn2)cc2c(CN3CCOCC3)n[nH]c12 (stereo not given) | 
0.077 nM | 0.064 nM |  |  | Cc1cc(C[C@@H](OC(=O)N2CCC(c3cc4ccccc4[nH]c3=O)CC2)c2cc(C(=O)N(C)C)cc(Cl)n2)cc2cn[nH]c12 | 
0.093 nM |  |  |  | Cc1cc(CC(OC(=O)N2CCC(N3CCc4ccccc4NC3=O)CC2)c2cc(C(=O)N(C)C)cc(Cl)n2)cc2cn[nH]c12 (stereo not given) | Papp [5]: < 1.5 ×10⁻⁶ cm/s
8.6 nM | 8.7 nM |  |  | Cc1cc(CC(CC(=O)N2CCC(N3Cc4ccccc4NC3=O)CC2)c2ccccn2)cc2cn[nH]c12 (stereo not given) | Papp [5]: 12 ×10⁻⁶ cm/s; bioavailability [7]: 3%
4.4 nM | 8.2 nM |  |  | Cc1cccnc1C(CC(=O)N1CCC(N2Cc3ccccc3NC2=O)CC1)Cc1cc(C)c2[nH]ncc2c1 (stereo not given) | 
12 nM | 18 nM |  |  | Cc1ccc(C(CC(=O)N2CCC(N3Cc4ccccc4NC3=O)CC2)Cc2cc(C)c3[nH]ncc3c2)nc1 (stereo not given) | Papp [5]: 6.4 ×10⁻⁶ cm/s; bioavailability [7]: 1%
1.1 nM | 0.94 nM |  |  | Cc1cc(CC(CC(=O)N2CCC(N3Cc4ccccc4NC3=O)CC2)c2ccc(C=O)cn2)cc2cn[nH]c12 (stereo not given) | 
1.8 nM | 1.3 nM |  |  | Cc1cc(CC(CC(=O)N2CCC(N3Cc4ccccc4NC3=O)CC2)c2ccc(CN3CCCCC3)cn2)cc2cn[nH]c12 (stereo not given) | Papp [5]: < 1.5 ×10⁻⁶ cm/s
24 nM | 30 nM |  |  | Cc1cc(CC(CC(=O)N2CCC(c3cc4ccccc4[nH]c3=O)CC2)c2ccccn2)cc2cn[nH]c12 (stereo not given) | Papp [5]: 3.4 ×10⁻⁶ cm/s
3.1 nM | 4.1 nM |  |  | Cc1cc(CC(NC(=O)N2CCC(N3Cc4ccccc4NC3=O)CC2)c2ccccn2)cc2cn[nH]c12 (stereo not given) | 
0.49 nM | 0.82 nM |  |  | Cc1cc(CC(NC(=O)N2CCC(N3Cc4ccccc4NC3=O)CC2)c2cccc(Br)n2)cc2cn[nH]c12 (stereo not given) | 
1.4 nM | 4.8 nM | Unstable | Unstable | Cc1cc(CC(OC(=O)N2CCC(N3Cc4ccccc4NC3=O)CC2)c2ccc3ccccc3n2)cc2cn[nH]c12 (stereo not given) | 
3.8 nM | 3.4 nM |  |  | Cc1cccc(C(Cc2cc(C)c3[nH]ncc3c2)NC(=O)N2CCC(N3Cc4ccccc4NC3=O)CC2)n1 (stereo not given) | 
2 nM | 2.1 nM | Unstable | Unstable | Cc1cc(CC(OC(=O)N2CCC(N3Cc4ccccc4NC3=O)CC2)c2cc(CO)ccn2)cc2cn[nH]c12 (stereo not given) | 
0.21 nM | 0.28 nM | Unstable | Unstable | Cc1cc(CC(OC(=O)N2CCC(N3Cc4ccccc4NC3=O)CC2)c2cc(C=O)ccn2)cc2cn[nH]c12 (stereo not given) | 

The remaining lines, values behind:

SMILES | IC50 [1] | IC50 [2] | Stability (Liver microsomes [3]) | Stability (Liver microsomes [4]) | further results
Cc1cc(CC(OC(=O)N2CCC(N3Cc4ccccc4NC3=O)CC2)c2cc(C#N)ccn2)cc2cn[nH]c12 (stereo not given) | 3 nM |  | Unstable | Unstable | 
Cc1cc(CC(OC(=O)N2CCC(N3Cc4ccccc4NC3=O)CC2)c2cc(C(=O)N(C)C)ccn2)cc2cn[nH]c12 (stereo not given) | 0.33 nM |  | Unstable | Unstable | 
Cc1cc(CC(OC(=O)N2CCC(N3Cc4ccccc4NC3=O)CC2)c2cc(C(=O)N3CCCCC3)ccn2)cc2cn[nH]c12 (stereo not given) | 0.28 nM | 0.099 nM | Unstable | Unstable | 
Cc1cc(CC(OC(=O)N2CCC(c3cc4ccccc4[nH]c3=O)CC2)c2ccccn2)cc2cn[nH]c12 (stereo not given) | 12 nM |  | Unstable | Unstable | 
Cc1cc(CC(OC(=O)N2CCC(c3cc4ccccc4[nH]c3=O)CC2)c2cc(CN3CCCCC3)ccn2)cc2cn[nH]c12 (stereo not given) | 0.16 nM | 0.1 nM | Unstable | Unstable | Papp [5]: 8.5 ×10⁻⁶ cm/s
Cc1cc(CC(OC(=O)N2CCC(c3cc4ccccc4[nH]c3=O)CC2)c2cc(CN3CCCC3)ccn2)cc2cn[nH]c12 (stereo not given) | 0.24 nM |  | Unstable | Unstable | Papp [5]: 4.9 ×10⁻⁶ cm/s
Cc1cc(CC(OC(=O)N2CCC(c3cc4ccccc4[nH]c3=O)CC2)c2cc(CN3CCCCCC3)ccn2)cc2cn[nH]c12 (stereo not given) | 0.095 nM | 0.042 nM | Unstable | Unstable | Papp [5]: 2.8 ×10⁻⁶ cm/s
Cc1cc(CC(OC(=O)N2CCC(N3Cc4ccccc4NC3=O)CC2)c2ccccn2)cc2c(Cl)n[nH]c12 (stereo not given) | 0.39 nM |  |  |  | 
Cc1cc(CC(OC(=O)N2CCC(N3Cc4ccccc4NC3=O)CC2)c2ccccn2)cc2c(-c3ccccc3)n[nH]c12 (stereo not given) | 0.24 nM |  |  |  | 
Cc1cc(CC(OC(=O)N2CCC(N3Cc4ccccc4NC3=O)CC2)c2ccccn2)cc2c(C=O)n[nH]c12 (stereo not given) | 1.3 nM |  |  |  | 
Cc1cc(CC(OC(=O)N2CCC(N3Cc4ccccc4NC3=O)CC2)c2ccccn2)cc2c(CN3CCCCC3)n[nH]c12 (stereo not given) | 6.6 nM |  |  |  | 
Cc1cc(CC(OC(=O)N2CCC(N3Cc4ccccc4NC3=O)CC2)c2ccccn2)cc2c(CN3CCCC3)n[nH]c12 (stereo not given) | 6.8 nM |  |  |  | 
Cc1cc(CC(OC(=O)N2CCC(n3c(=O)[nH]c4ncccc43)CC2)c2cc(C(=O)N(C)C)cc(Cl)n2)cc2cn[nH]c12 (stereo not given) | 0.071 nM |  |  |  | Papp [5]: 1.6 ×10⁻⁶ cm/s; Ki [6]: 0.18 nM; Cp(f) (Plasma): 21%
Cc1cc(CC(CC(=O)N2CCC(N3Cc4cccc(F)c4NC3=O)CC2)c2ccccn2)cc2cn[nH]c12 (stereo not given) | 35 nM | 20 nM |  |  | Papp [5]: 21 ×10⁻⁶ cm/s; bioavailability [7]: 3%
CCc1ccnc(C(CC(=O)N2CCC(N3Cc4ccccc4NC3=O)CC2)Cc2cc(C)c3[nH]ncc3c2)c1 (stereo not given) | 10 nM | 13 nM |  |  | Papp [5]: 14 ×10⁻⁶ cm/s; bioavailability [7]: 2%
Cc1cc(CC(CC(=O)N2CCC(N3Cc4ccccc4NC3=O)CC2)c2ccc(CO)cn2)cc2cn[nH]c12 (stereo not given) | 7.9 nM | 6 nM |  |  | 
Cc1cc(CC(OC(=O)N2CCC(N3Cc4ccccc4NC3=O)CC2)c2ccccn2)cc2cn[nH]c12 (stereo not given) | 1.5 nM | 1.9 nM | Unstable | Unstable | 
Cc1cc(CC(OC(=O)N2CCC(N3Cc4ccccc4NC3=O)CC2)c2cccc(Br)n2)cc2cn[nH]c12 (stereo not given) | 0.38 nM | 0.46 nM | Unstable | Unstable | 
Cc1cc(CC(NC(=O)N2CCC(N3Cc4ccccc4NC3=O)CC2)c2ccc3ccccc3n2)cc2cn[nH]c12 (stereo not given) | 2 nM | 1.4 nM |  |  | 
Cc1cc(CC(NC(=O)N2CCC(N3Cc4ccccc4NC3=O)CC2)c2cc3ccccc3cn2)cc2cn[nH]c12 (stereo not given) | 0.82 nM | 1 nM |  |  | 
Cc1cc(CC(OC(=O)N2CCC(N3Cc4ccccc4NC3=O)CC2)c2cc3ccccc3cn2)cc2cn[nH]c12 (stereo not given) | 0.46 nM | 0.63 nM | Unstable | Unstable | 
Cc1cc(CC(NC(=O)N2CCC(N3Cc4ccccc4NC3=O)CC2)c2cccc(-c3ccccc3)n2)cc2cn[nH]c12 (stereo not given) | 12 nM | 14 nM |  |  | 
Cc1cc(C[C@@H](NC(=O)N2CCC(N3Cc4cccc(F)c4NC3=O)CC2)C(=O)N2CCC(N3CCCCC3)CC2)cc2cn[nH]c12 |  |  |  |  | Ki [1]: 0.013 nM
